Measured values: publication PMC12716005, “Design, Synthesis, and Molecular Docking of Triazole‐Coumarin Hybrids as Potent Breast Cancer Inhibitors Targeting Cell Cycle and Apoptosis” (Chemistry & Biodiversity, 2025)
One block for each compound: values may come before it.

Experiments:
[1] = test system: MCF‐10A human breast epithelial cells; test: MTT cell viability assay, MCF-10A; assay type: cell-based; settings: 72 h, non-tumorigenic cells
Protocol: (§1) Human cell lines, breast cancer MCF‐7 and MDA‐MB‐231, along with the human breast epithelial cell line (MCF‐10A), were purchased from ATCC (Rockville, USA). The necessary supplies, including fetal bovine serum (FBS), RPMI 1640 medium, 3‐(4,5‐dimethylthiazol‐2‐yl)‐2,5‐diphenyltetrazolium bromide (MTT), and DMSO, were provided by Merck (Darmstadt, Germany). The cells were maintained at 37°C in a CO2─enriched chamber, utilizing RPMI 1640 medium fortified with 10% FBS and 100 U/mL of penicillin/streptomycin [30].
(§2) Cell survival was evaluated using the MTT technique, which measures cellular redox activity. In metabolically active cells, MTT (3‐(4,5‐dimethylthiazol‐2‐yl)) is reduced to form an insoluble purple formazan. This formazan was solubilized, and its concentration was quantified by measuring optical density. MTT, sourced as a powder from Sigma, was made with phosphate‐buffered saline (PBS) in a 5 mM standard solution. The density at which cells were propagated was 10⁴ cells per well in 96‐well plates. Triazole‐coumarin hybrids were dissolved in DMSO, and varying concentrations (0.1–200 µM) of these derivatives were applied to the cells. Following treatment for 24, 48, and 72 h, 20 µL of the MTT mix was applied to each well, and the wells were then incubated for 4 h at thirty‐seven degrees in a CO2 incubator. After incubating, the formazan crystals were dissolved by adding 200 µL of DMSO after the MTT mixture was withdrawn. The absorption rate was recorded at 590 nm utilizing a Tecan spectrophotometer. Cisplatin served as the reference drug. […] To determine the selective toxicity of the triazole‐coumarin hybrids against breast cancer cells, the formula was used to compute the SI = IC50 for normal cells/IC50 for cancer cells.

[2] = test system: MDA‐MB‐231 breast cancer cells; test: MTT cell viability assay, MDA-MB-231; assay type: cell-based, human; settings: for IC50: MTT, 72 h
Protocol: as §1, §2

[3] = test system: MCF‐7 breast cancer cells; test: MTT cell viability assay, MCF-7; assay type: cell-based, human; settings: for IC50: MTT, 72 h
Protocol: as §1, §2

MCF‐7 = test system: MCF‐7; set-up: method as in PMID 30556027; settings: literature ref 28; cited from earlier work
Bax mRNA [4] = test: qRT-PCR Bax mRNA in MCF-7; assay type: cell-based, human; settings: MCF-7, IC50 value of 5f, 72 h
Protocol: (§3) To figure out the mRNA levels of apoptosis‐related proteins B‐cell lymphoma 2 (Bcl─2), Bcl─2‐associated X protein (Bax), cyclin‐dependent kinase 2 (CDK2), and Cyclin E, total mRNA was extracted from cells treated with compound 5f using Trizol reagent (Sigma). Complementary DNA (cDNA) synthesis was conducted from total mRNA using a Qiagen cDNA synthesis kit as described by the manufacturer. The primers listed below (350 nM concentration) were utilized: Bcl─2; forward ([…]); reverse ([…]), Bax; forward ([…]); reverse ([…]), CDK2; forward ([…]); reverse (TGGCTGAAATCCGCTTGTT), Cyclin E; forward ([…]); reverse ([…]), human GAPDH; forward ([…]); reverse (AGATGGTGATGGGCTTCCC). The PCR reaction mixture consisted of 1X buffer, 0.2 mM dNTPs, 1.6 mM MgCl2, 50 pmol of primer sets, cDNA, and 0.25 U of Taq polymerase. The thermal cycling conditions included an initial denaturation at 95°C for 60 s, followed by 50 cycles comprising 15 s of denaturation at 95°C, 15 s of annealing at 60°C, and 60 s of extension at 72°C. The median CT value of GAPDH, the naturally present housekeeping gene, was utilized to normalize the cycle threshold (CT) values. Levels of compared transcription were established using the comparative ^ΔΔCT method.

[5] = test system: MDA‐MB‐231 breast cancer cells; test: DNA fragmentation (Cell Death Detection kit), MDA-MB-231; assay type: cell-based, human; settings: 72 h, p < 0.05
Protocol: (§4) As an apoptotic signature, DNA fragmentation was evaluated using the Cell Death Detection kit (Sigma). In 96‐well plates, cancerous cells were cultivated at a density of 1×10⁵ cells per well, and compound 5f was applied at its IC50 concentration for 72 h. In brief, 20 µL of cell lysates were transferred to streptavidin‐coated wells preloaded with anti‐DNA antibodies and held at RT for 2 h. Three washes afterward with the provided washing buffer, 2,2‐azino‐di‐(3‐ethylbenzthiazoline sulfonate) diammonium salt was put into every well. Absorbance was determined at 405 nm employing a spectrophotometer.

[6] = test system: MDA‐MB‐231 breast cancer cells; test: Cell cycle analysis by flow cytometry (PI), MDA-MB-231; assay type: cell-based, human; settings: 72 h
Protocol: (§5) In 24‐well plates, cells were introduced at a concentration of 5×10⁵ colonies per plate, and compound 5f was administered at its IC50 concentration for 72 h. The cell cycle phases were evaluated using the Cayman Cell Cycle Phase Determination Kit. Following treatment, applying cold PBS, cells were rinsed, trypsinized, and 5 min of centrifugation at 500 × g. The resulting pellets were resuspended in 250 µL of fixative and held at −20°C for 2 h. After a second centrifugation at 500 × g for 5 min, washing was carried out with PBS and stained with propidium iodide (PI) for 30 min at room temperature. Flow cytometric analysis of the cell cycle was implemented using a BD Accuri C6 flow cytometer, with detection wavelengths ranging from 488 to 650 nm.

Bax mRNA [7] = test: qRT-PCR Bax mRNA in MDA-MB-231; assay type: cell-based, human; settings: MDA-MB-231, IC50 value of 5f, 72 h
Protocol: as §3

Bcl─2 mRNA [8] = test: qRT-PCR Bcl-2 mRNA in MCF-7; assay type: cell-based, human; settings: MCF-7, IC50 value of 5f, 72 h
Protocol: as §3

[9] = test system: MCF‐7 breast cancer cells; test: DNA fragmentation (Cell Death Detection kit), MCF-7; assay type: cell-based, human; settings: 72 h, p < 0.05
Protocol: as §4

[10] = test system: MCF‐7 breast cancer cells; test: Cell cycle analysis by flow cytometry (PI), MCF-7; assay type: cell-based, human; settings: 72 h
Protocol: as §5

Bcl─2 mRNA [11] = test: qRT-PCR Bcl-2 mRNA in MDA-MB-231; assay type: cell-based, human; settings: MDA-MB-231, IC50 value of 5f, 72 h
Protocol: as §3

[12] = SI = IC50 for normal cells (MCF-10A)/IC50 for cancer cells

SMILES: N.N.[Cl][Pt][Cl] [Cisplatin, cisplatin, reference compound]
IC50 [1]: 12.2 ± 0.8 µM
IC50 [2]: 8.7 ± 0.6 µM
IC50 [3]: 9.3 ± 1.2 µM

SMILES: CCc1n[nH]c(=O)n1NC(=O)c1cc2c(ccc3ccccc32)oc1=O [Derivative 5b, N‐(3‐Ethyl‐5‐oxo‐1,5‐dihydro‐4H‐1,2,4‐triazol‐4‐yl)‐3‐oxo‐3H‐benzo[f]chromene‐2‐carboxamide]
IC50 ([1]; Homo sapiens, MCF-10A): 25.2 ± 1.5 µM
apoptotic effect in MCF‐7 (MCF‐7): altered the mitochondrial membrane potential in MCF‐7, causing apoptotic cell death
IC50 ([2]; Homo sapiens, MDA-MB-231, 72 h): 95.8 ± 2.4 µM
IC50 ([3]; Homo sapiens, MCF7, 72 h): 76.6 ± 2.1 µM

SMILES: Cc1n[nH]c(=O)n1NC(=O)c1cc2c(ccc3ccccc32)oc1=O [Derivative 5a, N‐(3‐Methyl‐5‐oxo‐1,5‐dihydro‐4H‐1,2,4‐triazol‐4‐yl)‐3‐oxo‐3H‐benzo[f]chromene‐2‐carboxamide]
IC50 ([1]; Homo sapiens, MCF-10A): 12.5 ± 1 µM
IC50 ([2]; Homo sapiens, MDA-MB-231, 72 h): 18.4 ± 1.16 µM
IC50 ([3]; Homo sapiens, MCF7, 72 h): 22.5 ± 1.8 µM

SMILES: O=C(Nn1c(-c2ccccc2)n[nH]c1=O)c1cc2c(ccc3ccccc32)oc1=O [Derivative 5c, 3‐Oxo‐N‐(5‐oxo‐3‐phenyl‐1,5‐dihydro‐4H‐1,2,4‐triazol‐4‐yl)‐3H‐benzo[f]chromene‐2‐carboxamide]
IC50 ([1]; Homo sapiens, MCF-10A): 62.8 ± 0.4 µM
IC50 ([2]; Homo sapiens, MDA-MB-231, 72 h): 64 ± 1.4 µM
IC50 ([3]; Homo sapiens, MCF7, 72 h): 25.9 ± 0.8 µM

Second part, led by results:

IC50 ([2]; Homo sapiens, MDA-MB-231, 72 h): 61.7 ± 0.4 µM
IC50 ([3]; Homo sapiens, MCF7, 72 h): 68.9 ± 3.1 µM
SMILES: Cc1ccc(Cc2n[nH]c(=O)n2NC(=O)c2cc3c(ccc4ccccc43)oc2=O)cc1 [Derivative 5e, N‐(3‐(4‐Methylbenzyl)‐5‐oxo‐1,5‐dihydro‐4H‐1,2,4‐triazol‐4‐yl)‐3‐oxo‐3H‐benzo[f]chromene‐2‐carboxamide]
IC50 ([1]; Homo sapiens, MCF-10A): 40.6 ± 2.1 µM

IC50 ([2]; Homo sapiens, MDA-MB-231, 72 h): < 25 µM
IC50 [2]: 15.7 ± 0.2 µM
IC50 ([3]; Homo sapiens, MCF7, 72 h): < 25 µM
IC50 [3]: 22.1 ± 0.42 µM
SMILES: O=C(Nn1c(Cc2ccc(Cl)cc2)n[nH]c1=O)c1cc2c(ccc3ccccc32)oc1=O [Derivative 5f, N‐(3‐(4‐Chlorobenzyl)‐5‐oxo‐1,5‐dihydro‐4H‐1,2,4‐triazol‐4‐yl)‐3‐oxo‐3H‐benzo[f]chromene‐2‐carboxamide]
IC50 ([1]; Homo sapiens, MCF-10A): 61.9 ± 0.6 µM
Bax mRNA level, upregulated (Bax mRNA [4]): 2.35 fold
DNA fragmentation induction ([5]; MDA-MB-231, 1 µM): 1.7 fold
DNA fragmentation induction ([5]; MDA-MB-231, 10 µM): 2.15 fold
DNA fragmentation induction ([5]; MDA-MB-231, 50 µM): 4.15 fold
selectivity index (SI) MDA‐MB‐231 [2, 12]: 3.9
Cell cycle kinetics, G0/G1 ([6]; MDA-MB-231, IC50 value of 5f): 0.8
Cell cycle kinetics, M ([6]; MDA-MB-231, IC50 value of 5f): 20.0
Cell cycle kinetics, S ([6]; MDA-MB-231, IC50 value of 5f): 36.6
phase of cell cycle block ([6]; MDA-MB-231, IC50 value): S phase
Bax mRNA level, upregulated (Bax mRNA [7]): 2.35 fold
Bcl─2 mRNA level, downregulated (Bcl─2 mRNA [8]): 2.1 fold
DNA fragmentation induction ([9]; MCF-7, 1 µM): 1.65 fold
DNA fragmentation induction ([9]; MCF-7, 10 µM): 3 fold
DNA fragmentation induction ([9]; MCF-7, 50 µM): 4.1 fold
Cell cycle kinetics, M ([10]; MCF-7, IC50 value of 5f): 22.9
Cell cycle kinetics, S ([10]; MCF-7, IC50 value of 5f): 36.1
phase of cell cycle block ([10]; MCF-7, IC50 value): S phase
Bcl─2 mRNA level, downregulated (Bcl─2 mRNA [11]): 3.1 fold
selectivity index (SI) MCF‐7 [3, 12]: 2.8

IC50 ([2]; Homo sapiens, MDA-MB-231, 72 h): 87 ± 2 µM
IC50 ([3]; Homo sapiens, MCF7, 72 h): 49.8 ± 2.2 µM
SMILES: O=C(Nn1c(Cc2ccccc2)n[nH]c1=O)c1cc2c(ccc3ccccc32)oc1=O [Derivative 5d, N‐(3‐Benzyl‐5‐oxo‐1,5‐dihydro‐4H‐1,2,4‐triazol‐4‐yl)‐3‐oxo‐3H‐benzo[f]chromene‐2‐carboxamide]
IC50 ([1]; Homo sapiens, MCF-10A): 38.2 ± 0.7 µM
